The text below walks through data of US20100178652A1, “Materials and Methods for the Detection, Prevention and Treatment of Autoimmune Disease” (priority 2007, published 2010).

SMILES strings stand for the structures.

For assay [1], the system named is STAT5 phosphorylation. Kind of assay: Persistence of STAT5 phosphorylation in mature myeloid cells when GM-CSF signaling is blocked. It counts as cell-based, NOD mouse. As to conditions: NOD mature myeloid cells, once activated; inhibition of GM-CSF signaling. From the text: Flow cytometric analysis of fluorescently-conjugated antibody surface and intracellular binding will be used to phenotypically identify myeloid cells and quantify the level of STAT5 tyrosine phosphorylation in cells ex vivo and after in vitro stimulation. Cells will be first labeled with anti-CD11b and anti-IgM antibody conjugates to identify monocytes and macrophages (CD11b+/IgM−) in the sample, then fixed with 2% (v/v Cf) formaldehyde and permeabilized using 0.5% saponin in a high protein, isotonic buffer. Intracellular staining of STAT5Ptyr will be done using APC-conjugated anti-STAT5Ptyr specific monoclonal antibodies (Upstate Biotech, conjugated using Prozyme APC-labeling kit). This method is well developed in our laboratory and has shown good consistency in current studies. We will analyze the percentage of positive myeloid cells (% STATPtyr+/CD11b+) as well as mean fluorescence (MF) to assess both the number of cells in the myeloid population with activated STAT5 and the relative amount of phosphorylated STAT5 per cells after treatment. After flow analysis, the labeled cells are centrifuged onto slides and stain them for chromatin (DAPI, Molecular Probes). These cells were used for imaging by deconvolution microscopy as previously described and then used 3 dimensional projection rotational analysis to identify subcellular location of activated STAT5.

Assay [2] deals with STAT5 phosphorylation. As to conditions: mature monocytes and macrophages; blocking GM-CSF signaling; ref [20]; cited from earlier work.

As to `N#C/C(=C/c1ccc(O)c(O)c1)C(=O)NCc1ccccc1` [AG490], in the assay with STAT5 phosphorylation [1], the “persistence of STAT5 phosphorylation” value is recorded as “not affected”. In the assay on STAT5 phosphorylation [2], the “persistence of phosphorylated STAT5” value was “does not affect”.
